Experimental data taken from patent US20050124618A1, “Methods of modulating angiogenesis and cancer cell proliferation” (priority 2003, published 2005).
Entries after “also recorded” stand apart in the source; their conditions may differ.

Assays:
rat cornea = assay: Rat cornea pocket angiogenesis assay (growth factor pellets); format: in vivo
Procedure: (i) Preparation of sustained-release polymer: Sustained-release polymer pellets were prepared by making a 1:1 mix of a 12% solution in ethanol of the polymer (Hydron polyhydroxyethylmethacrylate), with saline containing the growth factors. The growth factors bFGF, VEGF, and EGF were dissolved at a concentration of 125 ng/μl. […] 2 μl of these solutions were added to each pellet. Thus, a pellet containing 250 ng of a single growth factor was implanted at random in the right or left eye. The other eye was implanted with a pellet containing the same dose of growth factor+HET0016. In some rats the pellet contained VEGF alone and VEGF+DDMS. 20 μg of the stable 20-HETE agonist analog WIT003 was implanted in one eye to determine whether it induces angiogenesis. […] 9 μl of the 1:1 Hydron/treatment mixture was placed on the ends of 1.5-cm rods. Each pellet contained 250 ng of its respective growth factor. For bFGF we used sucralfate to stabilize and allow sustained release of this growth factor (Volkin D B et al., Biochim Biophys Acta 1993, 1203:18-26). After drying the pellets for 1 hour, they were ready to be implanted into the cornea of rats.
(ii) Pellet implantation: The rats were anesthetized IM with ketamine (80 mg/kg) and xylazine (10 mg/kg). The eyes were topically anesthetized with 0.5% proparacaine (Ophthetic, Alcon, Tex.) and the globes proptosed with a jeweler's forceps. Using an operating microscope, a central intrastromal linear keratotomy, approximately 1.5 mm in length, was performed with a surgical blade (Bard-Parker #11; Becton Dickinson, Franklin Lake, N.Y.) parallel to the insertion of the lateral rectus muscle. A curved iris spatula (No. 10093-13, Fine Science Tools, Belmont, Calif.) approximately 1.5 mm wide and 5 mm long was inserted under the lip of the incision and gently pushed through the stroma toward the temporal limbus of the eye. The distance between the limbus and the base of the pocket was kept at 1.0±0.1 mm. The pellet was advanced to the temporal end of the pocket. Antibiotic ointment (erythromycin) was applied to the anterior surface of the eye.
(iv) Quantitation of corneal neovascularization: Seven days after pellet implantation, the rats were deeply anesthetized as previously described with ketamine and xylazine. The left ventricle was cannulated and the animal was perfused with 20-25 ml saline through the left ventricle followed by 20-25 ml India ink (waterproof drawing ink, Sanford, Bellwood, Ill.). The eyes were marked for orientation, enucleated and placed in 4% formalin for 24 hours. The cornea was dissected free from the surrounding globe and underlying iris, bisected, and loosely mounted between two glass slides, thus gently flattening the cornea. These flat mounts were examined microscopically using a Nikon Diaphot Epi-fluor 2 microscope attached to a CCD video camera and the images were digitized and saved using a computer.
Neovascularization was determined by comparing total vessel length in the control and experimental eyes. Vessel length was determined by tracing each vessel from the limbus to the pellet. Total length is the sum of these values in pixels and was determined using conventional image analysis software (Sigma Scan Pro, SPSS, Chicago, Ill.)

9L rat gliosarcoma cells = assay: 9L cell proliferation assay (cell counting); format: cell-based
Procedure: Culture Conditions: 9L rat gliosarcoma cells were purchased from ATC (Gaithersburg, Md.) and were maintained in DMEM (Invitrogen) supplemented with 10% heat-inactivated fetal bovine serum (FBS), penicillin (10 IU/ml), streptomycin (10 μg/ml) and 10% non-essential amino acids (all purchased from Invitrogen). Cells were maintained at 37° C. in a humidified incubator containing 5% CO2. They were grown in medium containing 10% FBS, which was then replaced with serum-free medium (give type and source) where 9L cells grow exponentially.
Cell Proliferation Assays: Proliferation studies were performed with cultures plated at a density that ensured exponential growth for at least 5 days. Growth medium were generally replaced by serum free medium 24 hr after plating. […] The concentration of the ethanol added to the media never exceeded 0.1%. Cells were harvested by exposure to a solution of 0.05% Trypsin/EDTA and counted using a hemocytometer.

p42/p44 MAPK = assay: Western blot of phospho-p42/p44 MAPK in 9L cells; format: cell-based, rat; conditions: 10 μM HET0016; 4 hr, 24 hr
Procedure: They were then pelleted by centrifugation at 1,000 g for 5 min at 4° C. The cells were lysed by adding RIPA buffer [20 mM HEPES (pH 7.4), 100 mM NaCl, 1% Nonidet P-40, 0.1% SDS, 1% deoxycholic acid, 10% glycerol, 1 mM EDTA, 1 mM NaVO3, 50 mM NaF, and protease inhibitors Set 1 (Calbiochem, La Jolla, Calif.)]. The plates were then scraped and the cells were collected in a 1.5-ml centrifuge tube, followed by incubation on ice for 30 min. The cell homogenates were centrifuged for 10 min at 14,000 g and 4° C.; the pellets were discarded and the protein concentrations in the supernatant determined by bicinchoninic acid (BCA) protein assay.
Typically, 20 μg of protein obtained from the cell homogenates was separated on a 14% Tris-glycine gel (Invitrogen) and transferred to a PVDF membrane (Biotrace, Bothell, Wash.). The membranes were blocked for 1 hr at room temperature with blocking buffer [0.2% I-Block reagent (Tropix, Bedford, Mass.), 0.1% Tween-20 in 1×PBS] and then incubated with the primary antibodies in blocking buffer overnight at 4° C. Phospho-p42/p44 MAPK (T202/Y204)(20G11), and phospho-SAPK/JNK (T183/Y185) (98F2) monoclonal antibodies were purchased from Upstate (Waltham, Mass.). […] Both phospho-p44/p42MAPK and phospho-SAPK/JNK were detected using 1:1000 antibody dilutions. […]

CCCCc1ccc(N=CNO)c(C)c1 [HET0016, N-hydroxy-N′-(4-butyl-2 methylphenyl) formamidine]
angiogenic response to inhibitor alone (rat cornea; 20 μg HET0016 or 10 μg DDMS per pellet, no growth factor): Neither HET0016 nor DDMS alone elicited a response different from saline | effect on the angiogenic response to EGF (rat cornea; EGF 250 ng/pellet + 20 μg HET0016): drastically decreased the angiogenic response; also recorded: obliterated; also recorded: blocks the angiogenic response | reduction of angiogenic responses to VEGF (rat cornea; VEGF 250 ng/pellet + 5 μg HET0016): about 50% | effect on the angiogenic response to VEGF (rat cornea; VEGF 250 ng/pellet + 20 μg HET0016, 7 days): almost completely abolished; also recorded: obliterated; also recorded: inhibit angiogenic responses to VEGF | effect on the angiogenic response to VEGF (rat cornea; VEGF 250 ng/pellet + 40 μg HET0016): almost completely abolished | effect on the angiogenic response to bFGF (rat cornea; bFGF 250 ng/pellet + 20 μg HET0016): drastically decreased the angiogenic response; also recorded: obliterated; also recorded: blocks the angiogenic response | reduction of proliferation of 9L cells (9L rat gliosarcoma cells; 10 μM HET0016, 48 hrs): 60% | effect on EGF-stimulated growth of 9L cells at 24 hr (9L rat gliosarcoma cells; EGF 200 ng/ml + 10 μM HET0016, 24 hr): prevented the effects of EGF on cells growth | effect on EGF-stimulated growth of 9L cells at 48 hr (9L rat gliosarcoma cells; EGF 200 ng/ml + 10 μM HET0016, 48 hr): reduced the number of cells | effect on EGF-induced growth of 9L cells (9L rat gliosarcoma cells; EGF 200 ng/ml + HET0016): almost abolished | inhibition of 9L cell growth (9L rat gliosarcoma cells; HET0016 10 nM): some degree of inhibition of cell growth was apparent even though the difference from control was not significant | cytotoxicity to 9L cells (cell detachment, dead cells) (9L rat gliosarcoma cells; HET0016 100 μM): may have a direct cytotoxic effect | effect on 9L cell number (9L rat gliosarcoma cells; HET0016 100 μM): dramatic reduction in cell number | reduction of 9L cell number (9L rat gliosarcoma cells; HET0016 1 and 10 μM, both 24 and 48 hr): 30-40% | dose dependence of inhibition of 9L growth (9L rat gliosarcoma cells; various concentrations of HET0016): decreased the proliferation of 9L cells in a dose-related manner; also recorded: produced a dose dependent inhibition | phosphorylation of p42/p44 MAPK (p42/p44 MAPK): decreases the phosphorylation; also recorded: significantly reduced the phosphorylation; also recorded: even greater after 24 hr
